Test results: publication PMC9897788, “Design, synthesis and cytotoxic evaluation of novel bis-thiazole derivatives as preferential Pim1 kinase inhibitors with in vivo and in silico study” (Journal of Enzyme Inhibition and Medicinal Chemistry, 2023)

How the values were obtained:
[1] = test system: Pim1 gene; set-up: method as in PMID 34458233; conditions: quantitative RT-PCR; cited from earlier work
[2] = test system: Ehrlich solid carcinoma; test: In vivo cytotoxicity study, Ehrlich solid carcinoma model; set-up: species or system male Swiss albino mice; conditions: i.p. once weekly for 3 weeks, 8b 1 mg/kg, 3b 1.4 mg/kg, doxorubicin 2 mg/kg; for VEGF expression by immunohistochemistry / caspase-3 expression by immunohistochemistry: Ehrlich solid tumour tissue; for Histopathological examination of Ehrlich solid tumour (H&E): mice
Procedure: The National Cancer Institute (Cairo, Egypt) provided the 48 male Swiss albino mice utilised in this study, which ranged in weight from 25 to 30 g. Prior to the experiment, mice were given a week to settle into their new environment. A constant 23 °C temperature, 60% humidity, and a 12/12 light/dark cycle were maintained in stainless steel cages. Each cage housed five mice with a plenty of nourishing food and refreshing water were served. This in vivo study was approved from the ethical committee of the Azhar University, Faculty of Medicine, Egypt.
A female mouse with an 8-day-old ascetic tumour was obtained from the National Cancer Institute on the day of induction, and Ehrlich ascites carcinoma (EAC) cells were isolated from the ascetic fluid of the animal (day 0). Then, regular saline was used to dilute the ascetic fluid (1:10). Each mouse received a subcutaneous injection of 0.2 ml of ascetic fluid containing 2.5 × 10^6 EAC cells in the right thigh of the hind limb to induce Ehrlich solid-phase cancer.
On day 11 following ESC inoculation, tumour formation was observed as a solid mass expanding in the right thigh of each animal. The mice were then randomly divided into four groups (n = 6) • Group (1) acted as the […] control group and mice received an i.p. DMSO (2 mg/kg/once weekly) for 3 weeks. • Group (2) (Doxorubicin Group) mice received an i.p. dose of doxorubicin (2 mg/kg/once weekly) for 3 weeks. • Group (3) mice were given an i.p. dose of 8b compound (1 mg/kg/once weekly) for 3 weeks, • Group (4) mice were given an i.p. dose of 3b compound (1.4 mg/kg/once weekly) for 3 weeks.
Two days after the last dose of therapy, blood was drawn from the mice’s orbital canthus, and serum was separated and stored at −80 °C for upcoming biochemical investigations. Following the cervical dislocation method of euthanasia, tumour samples from each mouse were collected and preserved in neutral buffered formalin at a 10% concentration for immunohistochemistry and histopathology studies. Histological preparations were performed according to the reported method. Slices of Ehrlich tumour were cut to a thickness of 3–4 mm before being fixed in 10% neutral buffered formalin (10% NBF), dehydrated through a series of ethanol solutions, cleaned in xylene, and finally embedded in paraffin. To examine the overall tissue architecture, sections ([…]) thick were cut from paraffin blocks using a microtome and stained with haematoxylin and eosin. We used a Leica microscope (CH9435 Hee56rbrugg) to look at H&E-stained tissue sections (Leica Microsystems, Switzerland).
The avidin–biotin–peroxidase complex (ABC) method was used to do immunohistochemistry on paraffin sections that were put on positively charged slides. Rabbit Anti-VEGF Receptor 2 Polyclonal Antibody (Elabscience Cat# E-AB-63481, Dil.: 1:100) and Rabbit Monoclonal anti-caspase-3 antibody, active (cleaved) form (Sigma Aldrich Catalog # AB3623)[41], were utilised during this IHC assessment. Each group’s sections were treated with the previously specified antibodies, after which the ABC technique reagents (Vectastain ABC-HRP kit, Vector labs) were applied. To locate the antigen–antibody combination, marker expression was stained with diaminobenzidine (DAB, manufactured by Sigma) and labelled with peroxidase. In order to conduct negative controls, non-immune serum was substituted for the primary or secondary antibodies. IHC-stained sections were assessed using a Leica (CH9435 Hee56sbrugg) microscope (Leica Microsystems, Switzerland).
Using one-way analysis of variance (ANOVA) followed by Tukey’s post-hoc test, the difference between experimental groups was analysed. All data are presented as mean ± standard deviation (SD). All comparisons were judged statistically significant when the p values ≤ 0.05. ImageJ (NIH Image J system, Bethesda, MD) was used for the analysis of immunohistochemistry photos.

[3] = test system: leukaemia; set-up: method as in PMID 20036563, PMID 26890114; conditions: against leukaemia; read-out: antitumor activity IC50; cited from earlier work
[4] = test system: Pim2; set-up: method as in PMID 25575657; conditions: cited from earlier work
[5] = test system: Pim3; set-up: method as in PMID 25575657; conditions: cited from earlier work
[6] = test system: Pim1; set-up: method as in PMID 25575657; conditions: cited from earlier work
[7] = test system: HepG2; set-up: method as in PMID 20036563, PMID 26890114; conditions: cell line not clearly printed, probably HepG2; read-out: antitumor activity IC50; cited from earlier work
[8] = test system: rat glioma; set-up: method as in PMID 20036563, PMID 26890114; conditions: against rat glioma; read-out: antitumor activity IC50; cited from earlier work

Cc1[nH]/c(=N/N=C2CCC(=N/N=c3/[nH]c(C)c(/N=N/c4ccccc4)s3)CC2)sc1/N=N/c1ccccc1 [IXa]
fold of change in Pim1 kinase activity (mRNA expression of Pim1 gene) [1]: 0.4 fold

COc1cccc2c1C(=O)c1c(O)c3c(c(O)c1C2=O)C[C@@](O)(C(=O)CO)C[C@@H]3O[C@H]1C[C@H](N)[C@H](O)[C@H](C)O1 [Doxorubicin, doxorubicin, reference compound]
VEGF expression by immunohistochemistry [2]: low expression of VEGF | caspase-3 expression by immunohistochemistry [2]: moderate caspase-3 expression | VEGF expression by immunohistochemistry ([2]; listed as DOX): moderate | caspase-3 expression by immunohistochemistry ([2]; listed as DOX): positive caspase3 immunoreactivity | Histopathological examination of Ehrlich solid tumour (H&E) [2]: small clusters of cancerous cells | Histopathological examination of Ehrlich solid tumour (H&E) ([2]; listed as doxorubicin): large region of necrotic muscle tissue surrounded by small clusters of cancerous cells

Cc1sc(=N)n(-c2cccc(-n3c(-c4ccc(Cl)cc4)c(C)sc3=N)c2)c1-c1ccc(Cl)cc1 [VI]
IC50 [3]: 1460 nM

Cc1ccc(/N=N/c2s/c(=N\N=C3CCC(=N/N=c4/[nH]c(C)c(/N=N/c5ccc(C)cc5)s4)CC3)[nH]c2C)cc1 [IXb]
fold of change in Pim1 kinase activity (mRNA expression of Pim1 gene) [1]: 0.5 fold

O=C(Nc1cnccc1OC1CCNCC1)c1csc(-c2c(F)cccc2F)n1 [VIIIa]
IC50 [4]: 18 nM | IC50 [5]: 1 nM | IC50 [6]: 1 nM

CNc1nc(C)c(/C(C)=N\c2nc(C)c(/N=N/c3ccccc3)s2)s1 [IV]
IC50 [7]: 13200 nM

COc1cc(-c2ccc(Nc3nc(-c4ccc(Br)cc4)cs3)c(OC)c2)ccc1Nc1nc(-c2ccc(Br)cc2)cs1 [III]
IC50 [8]: 15700 nM

Cc1[nH]/c(=N/N=C2CCC(=N/N=c3/[nH]c(C)c(/N=N/c4ccccc4Cl)s3)CC2)sc1/N=N/c1ccccc1Cl [IXc]
fold of change in Pim1 kinase activity (mRNA expression of Pim1 gene) [1]: 0.3 fold

O=C(Nc1cnccc1OC1CCCCC1)c1csc(-c2c(F)cccc2F)n1 [VIIIb]
IC50 [4]: 250 nM | IC50 [6]: 1 nM
